Entries after “also recorded” stand apart in the source; their conditions may differ. Like-named read-outs stand apart in the source and are kept apart here.
What was measured:
[1] = for mean AUCmetabolite/AUCparent ratio, fold higher in CYP3A5 expressors than nonexpressors: blood, after oral tacrolimus; for CLurinary (based on AUCblood) / CLurinary (based on AUCplasma): 0 to 96-hour collection; for total amount of tacrolimus excreted in urine as unchanged drug over 96 hours: oral administration
[2] = isolated perfused rat kidney; cited from earlier work
CYP3A5 [3] = conditions: cited from earlier work
[4] = set-up: species or system human; conditions: for k(2,1) (glomerular filtration of tacrolimus) / k(3,1) (secretion from efferent arteriole to renal epithelium): derived from estimated parameters; for fub (exchangeable fraction of tacrolimus in blood during glomerular filtration): ordinary least-squares estimation; for Kp: human, kidney/blood, oral, 5 mg, Kp,kidney (apparent tissue-to-blood partitioning coefficient), empirical Bayesian estimation
[5] = In vitro unbound fraction of tacrolimus in plasma and whole blood; type: in vitro ADME; conditions: whole blood
[6] = male rats, tacrolimus orally for four days; cited from earlier work
clinical = conditions: human, 5 mg; for half-life: blood, po, single oral dose 5 mg; for concentration at 96 h: whole blood, oral, Clast, blood concentration at 96 hour
[7] = test system: mouse mixed lymphocyte reaction; conditions: compared with tacrolimus; cited from earlier work
CYP3A5 [8] = target: CYP3A5 (Homo sapiens, UniProt P20815); assay: Metabolic clearance by CYP3A5; conditions: compared with tacrolimus; Supplemental Figure 1
Sequence of CYP3A5 (Homo sapiens, UniProt P20815) (P20815 whole entry): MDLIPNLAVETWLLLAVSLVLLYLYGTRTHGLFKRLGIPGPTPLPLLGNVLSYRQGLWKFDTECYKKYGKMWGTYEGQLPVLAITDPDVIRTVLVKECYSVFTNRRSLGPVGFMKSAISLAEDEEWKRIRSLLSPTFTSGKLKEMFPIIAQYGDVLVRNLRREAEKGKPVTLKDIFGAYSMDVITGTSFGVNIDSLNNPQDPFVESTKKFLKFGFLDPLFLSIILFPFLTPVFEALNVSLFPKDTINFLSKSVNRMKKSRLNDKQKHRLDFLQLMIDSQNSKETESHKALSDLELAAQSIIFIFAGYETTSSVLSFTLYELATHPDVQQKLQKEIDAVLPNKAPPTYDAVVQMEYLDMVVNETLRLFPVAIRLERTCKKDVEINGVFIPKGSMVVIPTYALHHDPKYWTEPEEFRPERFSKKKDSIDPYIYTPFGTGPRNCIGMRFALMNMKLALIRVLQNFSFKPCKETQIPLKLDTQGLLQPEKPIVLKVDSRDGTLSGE

C=CCC1C=C(C)CC(C)CC(OC)C2OC(O)(C(=O)C(=O)N3CCCCC3C(=O)OC(C(C)=CC3CCC(O)C(OC)C3)C(C)C(O)CC1=O)C(C)CC2O (centres unmarked) [13-DMT, 13-O-desmethyl tacrolimus]
mean AUCmetabolite/AUCparent ratio, fold higher in CYP3A5 expressors than nonexpressors [1]: 2.0 fold

CCOC(=O)[C@H](CCc1ccccc1)N[C@@H](C)C(=O)N1CCC[C@H]1C(=O)O [enalapril]
urinary clearance following inhibition of hydrolysis to enalaprilate by paraoxon [2]: increased

Cc1ncc2n1-c1ccc(Cl)cc1C(c1ccccc1F)=NC2 [midazolam]
hydroxylation activity, fold higher in CYP3A5*1/*3 than CYP3A5*3/*3 kidney microsomes (CYP3A5 [3]): 18 fold

C=CC[C@@H]1/C=C(\C)C[C@H](C)C[C@H](OC)[C@H]2O[C@@](O)(C(=O)C(=O)N3CCCC[C@H]3C(=O)O[C@H](/C(C)=C/[C@@H]3CC[C@@H](O)[C@H](OC)C3)[C@H](C)[C@@H](O)CC1=O)[C@H](C)C[C@@H]2OC [tacrolimus]
ER greater than fub′ [4]: ~ 400 fold | ER (extraction ratio of tacrolimus from the efferent arteriole) ([4]; CYP3A5 expressors): 5.1 ± 3.0% | k(0,3) (rate constant, CYP3A5-mediated intra-epithelial metabolism) ([4]; CYP3A5 expressors): 0.55 ± 0.52 h⁻¹ | k(1,3) (back flux from renal epithelium to efferent arteriole) ([4]; CYP3A5 expressors): 0.34 ± 0.05 h⁻¹ | k(2,3) (secretion from renal epithelium to tubular lumen) ([4]; CYP3A5 expressors): 0.0009 ± 0.0005 h⁻¹ | k(3,2) (reabsorption from tubular fluid back to renal epithelium) ([4]; CYP3A5 expressors): 0.091 ± 0.063 h⁻¹ | k(2,1) (glomerular filtration of tacrolimus) ([4]; CYP3A5 expressors): 0.94 ± 0.76 mL/h | k(3,1) (secretion from efferent arteriole to renal epithelium) ([4]; CYP3A5 expressors): 2368 ± 1404 mL/h | fub (exchangeable fraction of tacrolimus in blood during glomerular filtration) ([4]; CYP3A5 expressors): 0.014 ± 0.015% | ER (extraction ratio of tacrolimus from the efferent arteriole) ([4]; CYP3A5 nonexpressors): 4.3 ± 4.7% | k(1,3) (back flux from renal epithelium to efferent arteriole) ([4]; CYP3A5 nonexpressors): 0.36 ± 0.39 h⁻¹ | k(2,3) (secretion from renal epithelium to tubular lumen) ([4]; CYP3A5 nonexpressors): 0.0012 ± 0.0008 h⁻¹ | k(3,2) (reabsorption from tubular fluid back to renal epithelium) ([4]; CYP3A5 nonexpressors): 0.106 ± 0.057 h⁻¹ | k(2,1) (glomerular filtration of tacrolimus) ([4]; CYP3A5 nonexpressors): 0.77 ± 0.51 mL/h | k(3,1) (secretion from efferent arteriole to renal epithelium) ([4]; CYP3A5 nonexpressors): 1800 ± 1734 mL/h | fub (exchangeable fraction of tacrolimus in blood during glomerular filtration) ([4]; CYP3A5 nonexpressors): 0.011 ± 0.006% | in vivo fub′ (exchangeable fraction in blood) estimated from modeling ([4]; all subjects): 0.012 ± 0.011% | Kp ([4]; CYP3A5 expressors): 12.1 ± 0.3 | Kp ([4]; CYP3A5 nonexpressors): 23.4 ± 0.04 | Kp,kidney in CYP3A5 expressors as % of that calculated for nonexpressors ([4]; steady-state tissue-to-blood partitioning ratio): ~50% | fraction unbound [5]: 0.00078 ± 0.00026 | CLurinary (based on AUCblood) ([1]; CYP3A5 expressors (N=12)): 2.01 ± 0.57 mL/h | CLurinary (based on AUCplasma) ([1]; CYP3A5 expressors (N=12)): 50.15 ± 13.67 mL/h | CLurinary (based on AUCblood) ([1]; CYP3A5 nonexpressors (N=12)): 3.15 ± 1.69 mL/h | CLurinary (based on AUCplasma) ([1]; CYP3A5 nonexpressors (N=12)): 97.71 ± 59.89 mL/h | CLurinary/eGFR (based on AUCblood) ([1]; CYP3A5 expressors (N=12)): 0.028 ± 0.012% | CLurinary/eGFR (based on AUCplasma) ([1]; CYP3A5 expressors (N=12)): 0.58 ± 0.28% | total amount of tacrolimus excreted in urine as unchanged drug over 96 hours ([1]; CYP3A5 expressors): 271.6 ± 147.4 ng | CLurinary/eGFR (based on AUCblood) ([1]; CYP3A5 nonexpressors (N=12)): 0.048 ± 0.032% | CLurinary/eGFR (based on AUCplasma) ([1]; CYP3A5 nonexpressors (N=12)): 1.48 ± 1.10% | total amount of tacrolimus excreted in urine as unchanged drug over 96 hours ([1]; CYP3A5 nonexpressors): 642.6 ± 349.6 ng | mean apparent urinary tacrolimus clearance, lower in CYP3A5 expressors compared to nonexpressors ([1]; based on blood AUC): 36% | mean apparent urinary tacrolimus clearance, lower in CYP3A5 expressors compared to nonexpressors ([1]; based on plasma AUC): 49% | AUC0–96 Difference (%) ([1]; expressors vs nonexpressors): −35.2% | AUC0–inf Difference (%) ([1]; expressors vs nonexpressors): −36.5% | CL/F Difference (%) ([1]; expressors vs nonexpressors): 54.8% | CLurinary (based on AUCblood) Difference (%) ([1]; expressors vs nonexpressors): −36.2% | CLurinary (based on AUCplasma) Difference (%) ([1]; expressors vs nonexpressors): −48.7% | CLurinary/eGFR (based on AUCblood) Difference (%) ([1]; expressors vs nonexpressors): −41.7% | Clast Difference (%) ([1]; expressors vs nonexpressors): −46.2% | oral tacrolimus clearance (CL/F), fold higher in CYP3A5 expressors compared to nonexpressors ([1]; mean, expressors vs nonexpressors): 1.6 fold | Clast (blood concentration at 96 hours), fold higher in CYP3A5 nonexpressors compared to expressors ([1]; nonexpressors vs expressors): 1.9 fold | Kp,kid [6]: 12.2 | half-life (clinical; t1/2, CYP3A5 expressors (N=12)): 29.9 ± 4.8 h | half-life (clinical; t1/2, CYP3A5 nonexpressors (N=12)): 31.7 ± 4.3 h | concentration at 96 h (clinical; CYP3A5 expressors (N=12)): 0.2 ± 0.1 ng/mL | concentration at 96 h (clinical; CYP3A5 nonexpressors (N=12)): 0.4 ± 0.1 ng/mL | hydroxylation activity, fold higher in CYP3A5*1/*3 than CYP3A5*3/*3 kidney microsomes (CYP3A5 [3]): 18 fold

C=CCC1C=C(C)CC(C)CC(O)C2OC(O)(C(=O)C(=O)N3CCCCC3C(=O)OC(C(C)=CC3CCC(O)C(OC)C3)C(C)C(O)CC1=O)C(C)CC2OC (centres unmarked) [15-DMT, 15-O-desmethyl tacrolimus]
renal excretion in the two genotyped groups ([1]; CYP3A5 expressors vs nonexpressors): similar | mean AUCmetabolite/AUCparent ratio, fold higher in CYP3A5 expressors than nonexpressors [1]: did not differ; also recorded: similar

C=CCC1C=C(C)CC(C)CC(OC)C2OC(O)(C(=O)C(=O)N3CCCCC3C(=O)OC(C(C)=CC3CCC(O)C(O)C3)C(C)C(O)CC1=O)C(C)CC2OC (centres unmarked) [31-DMT, 31-O-desmethyl tacrolimus]
mean AUCmetabolite/AUCparent ratio, fold higher in CYP3A5 expressors than nonexpressors [1]: 2.5 fold | immunosuppressive activity [7]: same immunosuppressive activity as tacrolimus | metabolic clearance by CYP3A5 (CYP3A5 [8]): comparable to that of tacrolimus

Reference: publication PMC4038024 (Clinical pharmacology and therapeutics, 2012)
